Experimental findings from ChEMBL document CHEMBL4396966, “Synthesis, biological evaluation and molecular docking of 4-Amino-2H-benzo[h]chromen-2-one (ABO) analogs containing the piperazine moiety” (Bioorg Med Chem, 2019) are described below.

Calls of active or inactive are those of the source. The calls are words filed in the database; no cut-off is given here. Bounds are passed on as bounds.

For assay [1], the target named is T1, Androgen receptor (Homo sapiens) (UniProt P10275).
T1 sequence (whole entry): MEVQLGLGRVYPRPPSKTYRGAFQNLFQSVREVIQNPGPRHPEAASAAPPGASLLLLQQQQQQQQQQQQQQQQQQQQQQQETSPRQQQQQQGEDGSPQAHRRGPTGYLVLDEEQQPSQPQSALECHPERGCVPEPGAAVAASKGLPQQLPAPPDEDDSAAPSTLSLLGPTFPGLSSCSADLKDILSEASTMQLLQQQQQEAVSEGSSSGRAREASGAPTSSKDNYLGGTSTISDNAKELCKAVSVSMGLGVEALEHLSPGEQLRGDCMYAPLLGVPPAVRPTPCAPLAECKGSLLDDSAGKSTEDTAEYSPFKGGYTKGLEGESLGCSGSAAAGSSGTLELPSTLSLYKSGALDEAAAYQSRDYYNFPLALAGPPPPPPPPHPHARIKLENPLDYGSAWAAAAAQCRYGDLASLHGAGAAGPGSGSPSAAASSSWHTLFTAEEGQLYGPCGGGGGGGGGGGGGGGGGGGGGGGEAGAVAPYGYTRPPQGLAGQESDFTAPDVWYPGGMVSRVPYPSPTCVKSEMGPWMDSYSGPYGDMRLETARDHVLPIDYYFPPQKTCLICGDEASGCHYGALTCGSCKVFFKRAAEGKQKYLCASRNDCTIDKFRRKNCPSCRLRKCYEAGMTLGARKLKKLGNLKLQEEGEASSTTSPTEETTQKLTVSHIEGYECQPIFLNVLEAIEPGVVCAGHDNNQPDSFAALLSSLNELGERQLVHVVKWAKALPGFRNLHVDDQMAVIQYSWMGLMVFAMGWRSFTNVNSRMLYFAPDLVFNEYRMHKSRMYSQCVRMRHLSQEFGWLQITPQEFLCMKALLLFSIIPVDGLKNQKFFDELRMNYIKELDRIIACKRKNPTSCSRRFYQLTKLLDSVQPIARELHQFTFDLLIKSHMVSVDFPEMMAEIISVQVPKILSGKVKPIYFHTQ
The conditions noted are these: at 10 µM.

The subject of assay [2] is PC-3. The assay is described as follows: Antiproliferative activity against AR-deficient human PC3 cells assessed as reduction in cell viability after 24 hrs by CCK-8 assay. Format: functional, cell-based. The conditions noted are these: PC-3, 24 h. Background: Tetrazolium assays rely on reduction of a dye to a coloured formazan, in cell work by metabolically active cells.

A short description of assay [3]: Antiproliferative activity against AR-rich human LNCaP-hr cells assessed as reduction in cell viability after 24 hrs by CCK-8 assay. It counts as functional.
For assay [4], the target named is T2, Androgen receptor (Rattus norvegicus, UniProt P15207).
T2 sequence (P15207 whole entry): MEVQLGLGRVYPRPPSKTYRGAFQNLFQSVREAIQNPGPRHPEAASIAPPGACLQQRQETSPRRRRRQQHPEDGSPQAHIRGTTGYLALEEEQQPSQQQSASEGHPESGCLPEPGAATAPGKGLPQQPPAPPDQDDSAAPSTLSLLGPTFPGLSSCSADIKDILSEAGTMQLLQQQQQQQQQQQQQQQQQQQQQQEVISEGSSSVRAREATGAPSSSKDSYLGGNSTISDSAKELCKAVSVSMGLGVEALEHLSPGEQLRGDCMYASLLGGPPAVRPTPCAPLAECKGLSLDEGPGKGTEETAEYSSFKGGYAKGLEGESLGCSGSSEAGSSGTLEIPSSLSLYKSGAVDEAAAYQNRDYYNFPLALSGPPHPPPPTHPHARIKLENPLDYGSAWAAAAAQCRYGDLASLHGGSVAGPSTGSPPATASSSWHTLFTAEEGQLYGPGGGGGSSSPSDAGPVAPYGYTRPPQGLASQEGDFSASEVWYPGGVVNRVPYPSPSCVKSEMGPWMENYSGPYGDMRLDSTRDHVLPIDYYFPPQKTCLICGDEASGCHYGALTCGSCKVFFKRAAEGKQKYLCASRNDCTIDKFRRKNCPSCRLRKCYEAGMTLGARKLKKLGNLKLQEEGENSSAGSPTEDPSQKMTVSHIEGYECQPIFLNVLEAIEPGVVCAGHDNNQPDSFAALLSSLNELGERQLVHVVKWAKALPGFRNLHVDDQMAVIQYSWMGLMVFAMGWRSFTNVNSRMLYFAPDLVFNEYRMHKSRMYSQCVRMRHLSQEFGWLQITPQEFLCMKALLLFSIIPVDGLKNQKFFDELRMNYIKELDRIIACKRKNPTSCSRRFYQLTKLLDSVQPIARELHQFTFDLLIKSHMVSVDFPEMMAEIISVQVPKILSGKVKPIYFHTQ
As to the kind of experiment: Displacement of fluormone-AL Green from His-tagged/GST-fused recombinant rat androgen receptor LBD expressed in insect cells measured after 4 hrs by fluorescence polarization assay. In general terms: Polarisation of emitted light reports the rotation of a fluorescent probe.

In general, inhibition refers to the drop in the measured response relative to a control, in per cent. As for `C[C@]1(O)CC[C@H]2[C@@H]3CCC4=CC(=O)CCC4=C3C=C[C@@]21C`, the inhibition result in assay [1] is “inactive”.

In general, IC50 refers to the concentration needed to halve the response being measured. On to `COc1cccc(N2CCN(c3cc(=O)oc4c3ccc3ccccc34)CC2)c1`, for which the IC50 in assay [2] was greater than 200 µM; in assay [3] it was 13.3 µM. Moreover, the inhibition in assay [1] was found to be 41.2%.

For `COc1ccccc1N1CCN(c2cc(=O)oc3c2ccc2ccccc23)CC1`, the IC50 in assay [2] is greater than 200 µM; in assay [3], 1.7 µM; in assay [4], 1260 nM. This compound displayed an inhibition in assay [1] of 61.2%.

As for `O=c1cc(N2CCN(c3ccccc3)CC2)c2ccc3ccccc3c2o1`, the IC50 was greater than 200 µM in assay [2], 5.05 µM in assay [3] and 3940 nM in assay [4]. In assay [1], this compound returned an inhibition of 51.2%.

Regarding `Cc1ccccc1N1CCN(c2cc(=O)oc3c2ccc2ccccc23)CC1`, the IC50 is 109 µM in assay [2], 4.43 µM in assay [3] and 3540 nM in assay [4]. Also, the inhibition in assay [1] stood at 53.1%.

On to `CCOc1ccccc1N1CCN(c2cc(=O)oc3c2ccc2ccccc23)CC1`, for which the concentration for half-maximal inhibition (IC50) in assay [2] is greater than 200 µM; in assay [3] it was 1.43 µM; in assay [4], 2080 nM. The compound further gave an inhibition in assay [1] of 58.5%.

Regarding `O=c1cc(N2CCN(c3ccccc3F)CC2)c2ccc3ccccc3c2o1`, the 50% inhibitory concentration (IC50) in assay [2] was found to be 124 µM; in assay [3], 1.89 µM; in assay [4], 3720 nM. Moreover, in assay [1], the inhibition stood at 52.3%.

Regarding `O=c1cc(N2CCN(C(c3ccc(F)cc3)c3ccc(F)cc3)CC2)c2ccc3ccccc3c2o1`, the values for the IC50 in assay [2], in assay [3] and in assay [4] were greater than 200 µM, 1.02 µM and 850 nM, respectively. For the same compound, the inhibition in assay [1] amounted to 70.3%.

For the compound `Cc1ccc(Cl)cc1N1CCN(c2cc(=O)oc3c2ccc2ccccc23)CC1`, the IC50 in assay [2] was greater than 200 µM; in assay [3] it was 15.3 µM. This compound also returned an inhibition in assay [1] of 48.3%.

On to `O=c1cc(N2CCN(c3cccc(Cl)c3)CC2)c2ccc3ccccc3c2o1`, for which the results for the IC50 in assay [2] and in assay [3] were 165 µM and 2.9 µM, respectively. In addition, in assay [1], the inhibition came to 40.1%.

Take `O=c1cc(N2CCN(c3ccc(Cl)cc3)CC2)c2ccc3ccccc3c2o1`: the IC50 was greater than 200 µM in assay [2], 1.3 µM in assay [3] and 2560 nM in assay [4]. The compound also yielded an inhibition in assay [1] of 53.7%.

Consider `O=c1cc(N2CCN(c3ccccn3)CC2)c2ccc3ccccc3c2o1`, for which the IC50 amounted to 150 µM in assay [2], 1.92 µM in assay [3] and 2210 nM in assay [4]. In assay [1], the inhibition was found to be 54.5%.

Take `Cc1ccc(N2CCN(c3cc(=O)oc4c3ccc3ccccc34)CC2)cc1`: the IC50 was determined as 136 µM in assay [2], 7.7 µM in assay [3] and 3020 nM in assay [4]. This compound also gave an inhibition in assay [1] of 53.3%.

For `O=c1cc(N2CCN(c3ccc(F)cc3)CC2)c2ccc3ccccc3c2o1`, the IC50 in assay [2] was greater than 200 µM; in assay [3], 19.3 µM. Besides, the inhibition in assay [1] was found to be 43.5%.

As to `O=c1cc(N2CCN(c3ccccc3Cl)CC2)c2ccc3ccccc3c2o1`, the IC50 in assay [2] was greater than 200 µM; in assay [3], 9.69 µM; in assay [4], 3870 nM. For the same compound, the inhibition in assay [1] stood at 51.2%.

On to `O=c1cc(N2CCN(c3ccccc3C(F)(F)F)CC2)c2ccc3ccccc3c2o1`, for which the IC50 in assay [2] stood at 108 µM; in assay [3], 1.14 µM; in assay [4], 1040 nM. The compound also gave an inhibition in assay [1] of 65.4%.

Regarding `Cc1cccc(N2CCN(c3cc(=O)oc4c3ccc3ccccc34)CC2)c1`, the IC50 in assay [2] is 54.1 µM; in assay [3], 32.5 µM. In assay [1], this compound showed an inhibition of 45.5%.

`O=c1cc(N2CCN(c3ccc(C(F)(F)F)cc3)CC2)c2ccc3ccccc3c2o1`: the values for the IC50 in assay [2] and in assay [3] were greater than 200 µM and 12.3 µM, respectively. Also, in assay [1], the inhibition stood at 20.7%.

Take `O=c1cc(N2CCN(c3ccc(F)cc3F)CC2)c2ccc3ccccc3c2o1`: the figures for the IC50 in assay [2] and in assay [3] were 122 µM and greater than 50 µM, respectively. Also, the inhibition in assay [1] came to 45.1%.

For `O=c1cc(N2CCN(c3ccc(Br)cc3)CC2)c2ccc3ccccc3c2o1`, the IC50 is greater than 200 µM in assay [2] and greater than 50 µM in assay [3]. Besides, the inhibition in assay [1] stood at 25.1%.

With `CC(C)(C)NC(=O)[C@H]1CC[C@H]2[C@@H]3CC[C@H]4NC(=O)C=C[C@]4(C)[C@H]3CC[C@]12C` [FINASTERIDE], the IC50 in assay [3] was 14.5 µM.

Regarding `COc1ccc(N2CCN(c3cc(=O)oc4c3ccc3ccccc34)CC2)cc1`, the IC50 in assay [2] amounted to 117 µM; in assay [3] it was 5.6 µM; in assay [4] it was 1560 nM. In assay [1], this compound returned an inhibition of 59.1%.

Consider `N#Cc1ccc(N2CCN(c3cc(=O)oc4c3ccc3ccccc34)CC2)c(F)c1`, for which the IC50 is greater than 200 µM in assay [2] and 37.8 µM in assay [3]. In assay [1], this compound returned an inhibition of 30.2%.

On to `O=c1cc(N2CCN(Cc3ccccc3)CC2)c2ccc3ccccc3c2o1`, for which the IC50 was greater than 200 µM in assay [2], 0.52 µM in assay [3] and 550 nM in assay [4]. The compound further yielded an inhibition in assay [1] of 72.1%.
